Test results: patent US20030100549A1, “Inhibitors of c-Jun N-terminal kinases (JNK)” (priority 1999, published 2003)

What follows are compounds tested against T1, activated JNK3 (Homo sapiens, UniProt P53779) (assay: JNK3 inhibition, spectrophotometric coupled-enzyme assay). Conditions: activated JNK3 10 nM, 10 μM ATP, 200 μM EGF receptor peptide, 30° C.
T1 construct: One such construct encodes amino acid residues Ser40-Glu402 of JNK3α1 and is preceded by Met and Gly residues; Met-Gly (initiator Met plus Gly added for the NcoI site) (N); made in house; host or cells: E. coli BL21 (DE3)
Type: biochemical
Source text: A BLAST search of the EST database using the published JNK3α1 cDNA as a query identified an EST clone (#632588) that contained the entire coding sequence for human JNK3α1. Polymerase chain reactions (PCR) using pfu polymerase (Strategene) were used to introduce restriction sites into the cDNA for cloning into the pET-15B expression vector at the NcoI and BamHI sites. The protein was expressed in E. coli. Due to the poor solubility of the expressed full-length protein (Met 1-Gln 422), an N-terminally truncated protein starting at Ser residue at position 40 (Ser 40) was produced. This truncation corresponds to Ser 2 of JNK1 and JNK2 proteins, and is preceded by a methionine (initiation) and a glycine residue. The glycine residue was added in order to introduce an NcoI site for cloning into the expression vector. In addition, systematic C-terminal truncations were performed by PCR to identify a construct that give rise to diffraction-quality crystals. One such construct encodes amino acid residues Ser40-Glu402 of JNK3α1 and is preceded by Met and Gly residues.
5 mg of JNK3 was diluted to 0.5 mg/ml in 50 mM HEPES buffer, pH 7.5, containing 100 mM NaCl, 5 mM DTT, 20 mM MgCl2 and 1 mM ATP. GST-MKK7(DD) was added at a molar ratio of 1:2.5 GST-MKK7:JNK3. After incubation for 30 minutes at 25° C., the reaction mixture was concentrated 5-fold by ultrafiltration in a Centriprep-30 (Amicon, Beverly, Mass.), diluted to 10 ml and an additional 1 mM ATP added. This procedure was repeated three times to remove ADP and replenish ATP. The final addition of ATP was 5 mM and the mixture incubated overnight at 4° C.
The activated JNK3/GST-MKK7(DD) reaction mixture was exchanged into 50 mM HEPES buffer, pH 7.5, containing 5 mM DTT and 5% glycerol (w/v) by dialysis or ultrafiltration. The reaction mixture was adjusted to 1.1 M potassium phosphate, pH 7.5, and purified by hydrophobic interaction chromatography (at 25° C.) using a Rainin Hydropore column. […] Activated JNK3 (i.e. doubly phosphorylated JNK3) was stored at −70° C. at 0.25-1 mg/ml.
Compounds were assayed for the inhibition of JNK3 by a spectrophotometric coupled-enzyme assay. In this assay, a fixed concentration of activated JNK3 (10 nM) was incubated with various concentrations of a potential inhibitor dissolved in DMSO for 10 minutes at 30° C. in a buffer containing 0.1 M HEPES buffer, pH 7.5, containing 10 mM MgCl2, 2.5 mM phosphoenolpyruvate, 200 μM NADH, 150 μg/mL pyruvate kinase, 50 μg/mL lactate dehydrogenase, and 200 μM EGF receptor peptide. The EGF receptor peptide has the sequence […], and is a phosphoryl acceptor in the JNK3-catalyzed kinase reaction. The reaction was initiated by the addition of 10 μM ATP and the assay plate is inserted into the spectrophotometer's assay plate compartment that was maintained at 30° C. The decrease of absorbance at 340 nm was monitored as a function of time. The rate data as a function of inhibitor concentration was fitted to competitive inhibition kinetic model to determine the Ki.

T1 sequence (P53779 40-402): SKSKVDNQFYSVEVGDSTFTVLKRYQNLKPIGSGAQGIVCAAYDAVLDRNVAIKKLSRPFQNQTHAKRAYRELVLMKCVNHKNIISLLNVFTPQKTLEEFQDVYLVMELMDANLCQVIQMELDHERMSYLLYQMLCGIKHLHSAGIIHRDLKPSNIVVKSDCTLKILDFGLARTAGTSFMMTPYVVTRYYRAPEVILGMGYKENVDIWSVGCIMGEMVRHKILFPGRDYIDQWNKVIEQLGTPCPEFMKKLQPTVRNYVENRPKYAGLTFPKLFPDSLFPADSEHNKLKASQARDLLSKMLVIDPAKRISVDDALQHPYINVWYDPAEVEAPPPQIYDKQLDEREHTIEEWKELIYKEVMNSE

Question: With Cc1cccc(NC(=O)c2c(Nc3ccc(F)cc3)[nH]c(=O)[nH]c2=O)c1 [Cmpd 10] as the compound, how does the Ki read?
Answer: ≥ 1 µM

Question: With Cc1cccc(NC(=O)c2c(Nc3ccccc3C)[nH]c(=O)[nH]c2=O)c1 [Cmpd 7] as the compound, how does the Ki read?
Answer: ≥ 1 µM

Question: Which Ki does the source give for Cc1ccccc1Nc1[nH]c(=O)[nH]c(=O)c1C(=O)Nc1ccccc1 [Cmpd 5] here?
Answer: ≥ 1 µM

Question: Which Ki does the source give for Cc1ccccc1Nc1[nH]c(=O)[nH]c(=O)c1C(=O)Nc1ccc(F)cc1 [Cmpd 6] here?
Answer: ≥ 1 µM

Question: With O=C(Nc1ccc(F)cc1)c1c(Nc2ccccc2)[nH]c(=O)[nH]c1=O [Cmpd 3, 2,4-dioxo-6-phenylamino-1,2,3,4-tetrahydro-pyrimidine-5-carboxylic acid (4-fluoro-phenyl)-amide] as the compound, how does the Ki read?
Answer: ≥ 1 µM

Question: Which Ki does the source give for O=C(Nc1ccccc1)c1c(Nc2ccccc2)[nH]c(=O)[nH]c1=O [Cmpd 1] here?
Answer: < 1 µM

Question: How did the Ki turn out when O=C(Nc1ccccc1)c1c(Nc2ccc(F)cc2)[nH]c(=O)[nH]c1=O [Cmpd 8] was run?
Answer: ≥ 1 µM

Question: O=C(Nc1ccccn1)c1c(Nc2ccccc2)[nH]c(=O)[nH]c1=O [Cmpd 2, 2,4-Dioxo-6-phenylamino-1,2,3,4-tetrahydro-pyrimidine-5-carboxylic acid pyridin-2-ylamide] was tested. Which Ki did it give?
Answer: ≥ 1 µM

Question: For O=C(Nc1ccc(F)cc1)c1c(Nc2ccc(F)cc2)[nH]c(=O)[nH]c1=O [Cmpd 9], which Ki is on record?
Answer: ≥ 1 µM

Question: How did the Ki turn out when Cc1cccc(NC(=O)c2c(Nc3ccccc3)[nH]c(=O)[nH]c2=O)c1 [Cmpd 4] was run?
Answer: ≥ 1 µM
